Laboratory results as given in patent US20070110720A1, “Vectors, mutant viruses and methods for generating mutant viruses” (priority 2003, published 2007).
“Also recorded” adds a separate entry of the source.

How the values were obtained:
confluent 3T6 cells = format: cell-based; settings: 50 μM CB1954 alone
C8161 cells = format: cell-based, human; settings: 50 μM CB1954 alone
A2780 xenografts = assay: Naked DNA experiment: CMV-ntr plasmid and CB1954 in xenograft tumours; format: in vivo, mice; settings: single agent: CMV-ntr 0.2 mg DNA intratumoural Day 0, or CB1954 80 mg/kg intra-peritoneal Day 2
Description: In order to check the alterations in tumour growth are due to the virus itself and not a result of the CMV-ntr plasmid DNA that had been introduced to the HSV 1716 virus, an experiment was set up looking at the effect of the CMV-ntr plasmid DNA alone and in combination with the prodrug CB1954.
Mice were randomised into treatment groups of 6 animals each when tumour diameters are approximately 5 mm (this is Day 0). […] Two groups of mice were administered CMV-ntr plasmid by direct intratumoural injection at a dose of 0.2 mg DNA per injection. One of these groups was then administered with a single dose of 80 mg/kg of CB1954 on Day 2 by intra-peritoneal injection. […] Animals were weighed daily (FIG. 23) and daily caliper measurements performed until the tumour sizes were in the region of 20 mm by 20 mm. Tumour volumes were estimated from these measurements (volume=[…]) (FIG. 24). In addition any toxicity from these administered agents was determined.

A2780 xenograft = assay: Scheduling experiment: tumour volume after virus and CB1954; format: in vivo, athymic nude mice
Description: Mice were randomized into treatment groups (treatment regimes shown in Table 2) of 3 animals when tumour diameters were approximately 5 mm (tumour volume […]).
(§1) The treatment groups were administered with a single direct intratumoural injection of the virus and dose determined for that group. The virus was diluted PBS+10% serum. ‘No virus’ control groups received an intratumoural injection of 100 μl of PBS+10% serum. This day was designated as Experimental Day 0.
(§2) Injections of CB1954 were given to the appropriate groups at days 2, 10 and 15. A dose of 80 mg/kg—the equivalent of approx. 2 mg per mouse—was given. The powdered form of the CB1954 drug (from Sigma) was dissolved in acetone to 10% of the final volume (10 μl per 2 mg). The volume was then made up to 2 mg CB1954 in 100 μl using peanut oil. A syringe was used to mix the drug as peanut oil is thick and viscous. The drug was made up fresh every time.
(§3) The appropriate groups were then injected intra-peritoneal with this solution. Control groups which were not receiving drug were injected intra-peritoneal with a 100 μl solution of 10% acetone in peanut oil.

[1] = Scheduling experiment: tolerability of injections; format: in vivo, athymic nude mice; settings: 80 mg/kg intra-peritoneal in 10% acetone/peanut oil
Description: as §1
Some tumours bleed slightly after injection but not to a great degree. […] In all the tumours that bleed slightly, the following day the healing process had begun and within 3-5 days there was little evidence of any puncture wound on any tumour.
as §2, §3

NC(=O)c1cc(N2CC2)c([N+](=O)[O-])cc1[N+](=O)[O-] [CB1954]
cell death (confluent 3T6 cells): no effect; also recorded: does not result in any significant cell death
cell death (C8161 cells): no effect
anti-tumour activity as determined by tumour regression (A2780 xenografts): neither the CMV-ntr alone, CB1954 alone or the combination of both CMV-ntr and CB1954, has any anti-tumour activity
effect on tumour growth (A2780 xenograft; CB1954 alone, 80 mg/kg intra-peritoneal, no virus (groups 5, 6, 7, 13)): little effect on tumour growth
tumour growth delay by timing of prodrug (A2780 xenograft; CB1954 given Day 2 post viral injection versus Day 10): tumour growth was not delayed as much as if the drug was given at a later date
body weight after intra-peritoneal injection [1]: did not lose any body weight
swelling or irritation at the site of injection [1]: No swelling or irritation
